The target of the assay is T1, SIRT1 (Homo sapiens, UniProt Q96EB6).
T1 sequence (Q96EB6 1-747): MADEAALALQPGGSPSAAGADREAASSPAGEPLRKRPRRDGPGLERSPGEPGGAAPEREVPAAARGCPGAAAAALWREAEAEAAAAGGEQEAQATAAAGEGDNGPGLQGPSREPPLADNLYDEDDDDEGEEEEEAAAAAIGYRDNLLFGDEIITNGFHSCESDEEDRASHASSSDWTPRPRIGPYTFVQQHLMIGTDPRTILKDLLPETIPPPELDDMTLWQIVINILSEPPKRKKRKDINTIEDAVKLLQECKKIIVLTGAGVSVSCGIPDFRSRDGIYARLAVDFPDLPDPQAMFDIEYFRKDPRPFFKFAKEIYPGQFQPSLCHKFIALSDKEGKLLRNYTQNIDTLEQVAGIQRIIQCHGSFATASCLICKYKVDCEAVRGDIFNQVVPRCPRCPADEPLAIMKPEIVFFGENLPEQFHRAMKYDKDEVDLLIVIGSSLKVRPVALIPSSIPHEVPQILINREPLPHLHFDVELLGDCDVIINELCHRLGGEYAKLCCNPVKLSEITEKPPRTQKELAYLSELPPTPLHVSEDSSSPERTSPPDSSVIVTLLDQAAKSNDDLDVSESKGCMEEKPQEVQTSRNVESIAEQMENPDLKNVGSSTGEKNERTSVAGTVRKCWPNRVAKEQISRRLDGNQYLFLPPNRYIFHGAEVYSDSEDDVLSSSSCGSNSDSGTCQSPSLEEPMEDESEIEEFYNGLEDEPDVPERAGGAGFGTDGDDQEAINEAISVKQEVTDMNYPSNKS
In words: Trp mass spectrometry assay of SIRT1 activation. It is filed as biochemical. To be noted: Trp peptide assay; for TRP Activity (EC1.5): EC1.5 = concentration that results in 150% activation of SIRT1; for Emax: maximum activity relative to control (100%), read-out: TRP MAX RESP (percent maximum fold activation). An outline of the steps: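 N-terminal His-tagged human SIRT1 (10 nM, E. coli BL21(DE3)) with 0.5 μM Ac-RHKK(Ac)W-NH2 peptide and 120 μM βNAD+, 25 min at 25 °C in HEPES pH 7.5, formic acid stop. OAADPR or deacetylated peptide quantified by mass spectrometry; EC1.5 (50% activity increase over control) and Percent Maximum Activation reported.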

From US9834558B2, “Substituted bridged urea analogs as sirtuin modulators” (GLAXOSMITHKLINE LLC, priority 2013, dated 2017) come the findings set out here.

For the compound `Cc1ccc(NC(=O)N2c3nc(-c4ccnc(C)c4)ccc3N3CC[C@H]2C3)cn1` [(9S)-N-(6-methylpyridin-3-yl)-5-(2-methylpyridin-4-yl)-1,6,8-triazatricyclo[7.2.1.0 {2,7}]dodeca-2(7),3,5-triene-8-carboxamide], the “TRP Activity (EC1.5)” value was “B (B (EC1.5 1-25 μM))” and the Emax is more than 150%.

Take `Cc1ccc(-c2ccc3c(n2)N(C(=O)NCC2CC2)[C@H]2CCN3C2)cn1` [(9S)-N-(cyclopropylmethyl)-5-(6-methylpyridin-3-yl)-1,6,8-triazatricyclo[7.2.1.0^{2,7}]dodeca-2,4,6-triene-8-carboxamide]: the “TRP Activity (EC1.5)” value is “B (B (EC1.5 1-25 μM))” and the Emax is more than 150%.

Turning to `Cc1cc(-c2ccc3c(n2)N(C(=O)Nc2nc(C)c(C)s2)[C@H]2CCCN3C2)ccn1` [(9S)-N-(dimethyl-1,3-thiazol-2-yl)-5-(2-methylpyridin-4-yl)-1,6,8-triazatricyclo[7.3.1.0 {2,7}]trideca-2(7),3,5-triene-8-carboxamide], the “TRP Activity (EC1.5)” value is listed as “A (A (EC1.5<1 μM))” and the Emax is more than 150%.

In the case of `Cc1ccc(-c2ccc3c(n2)N(C(=O)Nc2cccc4cnccc24)[C@H]2CCN3C2)cn1` [(9S)-N-(isoquinolin-5-yl)-5-(6-methylpyridin-3-yl)-1,6,8-triazatricyclo[7.2.1.0 {2,7}]dodeca-2,4,6-triene-8-carboxamide], the “TRP Activity (EC1.5)” value is reported as “B (B (EC1.5 1-25 μM))” and the Emax is more than 150%.

On to `O=C(Nc1cnccn1)N1c2nc(-c3ccn[nH]3)ccc2N2CC[C@H]1C2` [(9S)-N-(pyrazin-2-yl)-5-(1H-pyrazol-5-yl)-1,6,8-triazatricyclo[7.2.1.0 {2,7}]dodeca-2(7),3,5-triene-8-carboxamide], for which the “TRP Activity (EC1.5)” value was “B (B (EC1.5 1-25 μM))” and the Emax is more than 150%.

Turning to `O=C(Nc1cnccn1)N1c2nc(-c3ccnc(C(F)(F)F)c3)ccc2N2CCC[C@H]1C2` [(9S)-N-(pyrazin-2-yl)-5-[2-(trifluoromethyl)pyridin-4-yl]-1,6,8-triazatricyclo[7.3.1.0 {2,7}]trideca-2(7),3,5-triene-8-carboxamide], the “TRP Activity (EC1.5)” value is given as “A (A (EC1.5<1 μM))” and the Emax is more than 150%.

Regarding `O=C(Nc1cnccn1)N1c2nc(-c3ccnc(C(F)(F)F)n3)ccc2N2CC[C@H]1C2` [(9S)-N-(pyrazin-2-yl)-5-[2-(trifluoromethyl)pyrimidin-4-yl]-1,6,8-triazatricyclo[7.2.1.0 {2,7}]dodeca-2(7),3,5-triene-8-carboxamide], the “TRP Activity (EC1.5)” value is reported as “B (B (EC1.5 1-25 μM))” and the Emax is more than 150%.

For the compound `O=C(Nc1cnccn1)N1c2nc(N3CCC(C(F)(F)F)CC3)ccc2N2CC[C@H]1C2` [(9S)-N-(pyrazin-2-yl)-5-[4-(trifluoromethyl)piperidin-1-yl]-1,6,8-triazatricyclo[7.2.1.0 {2,7}]dodeca-2(7),3,5-triene-8-carboxamide], the “TRP Activity (EC1.5)” value is on record as “A (A (EC1.5<1 μM))” and the Emax is more than 150%.

Consider `O=C(Nc1cnccn1)N1c2nc(-c3ccc(C(F)(F)F)nc3)ccc2N2CC[C@H]1C2` [(9S)-N-(pyrazin-2-yl)-5-[6-(trifluoromethyl)pyridin-3-yl]-1,6,8-triazatricyclo[7.2.1.0 {2,7}]dodeca-2(7),3,5-triene-8-carboxamide], for which the “TRP Activity (EC1.5)” value is listed as “B (B (EC1.5 1-25 μM))” and the Emax is more than 150%.

In the case of `O=C(Nc1cnccn1)N1c2nc(N3CCC[C@H](C(F)(F)F)C3)ccc2N2CCC[C@H]1C2` [(9S)-N-(pyrazin-2-yl)-5-[(3S)-3-(trifluoromethyl)piperidin-1-yl]-1,6,8-triazatricyclo[7.3.1.0 {2,7}]trideca-2(7),3,5-triene-8-carboxamide], the “TRP Activity (EC1.5)” value is “A (A (EC1.5<1 μM))” and the Emax is more than 150%.

As for `O=C(Nc1cccnn1)N1c2nc(-c3ccnc(C(F)(F)F)c3)ccc2N2CCC[C@H]1C2` [(9S)-N-(pyridazin-3-yl)-5-[2-(trifluoromethyl)pyridin-4-yl]-1,6,8-triazatricyclo[7.3.1.0 {2,7}]trideca-2(7),3,5-triene-8-carboxamide], the “TRP Activity (EC1.5)” value is listed as “A (A (EC1.5<1 μM))” and the Emax is more than 150%.

With `O=C(Nc1ccccn1)N1c2nc(N3CCOC(C(F)(F)F)C3)ccc2N2CC[C@H]1C2` (stereo partly drawn) [(9S)-N-(pyridin-2-yl)-5-[2-(trifluoromethyl)morpholin-4-yl]-1,6,8-triazatricyclo[7.2.1.0 {2,7}]dodeca-2(7),3,5-triene-8-carboxamide], the “TRP Activity (EC1.5)” value is “B (B (EC1.5 1-25 μM))” and the Emax was more than 150%.

As for `O=C(Nc1ccccn1)N1c2nc(-c3ccnc(C(F)(F)F)c3)ccc2N2CCC[C@H]1C2` [(9S)-N-(pyridin-2-yl)-5-[2-(trifluoromethyl)pyridin-4-yl]-1,6,8-triazatricyclo[7.3.1.0 {2,7}]trideca-2(7),3,5-triene-8-carboxamide], the “TRP Activity (EC1.5)” value is given as “A (A (EC1.5<1 μM))” and the Emax was more than 150%.

Take `O=C(Nc1ccccn1)N1c2nc(N3CCC(C(F)(F)F)CC3)ccc2N2CC[C@H]1C2` [(9S)-N-(pyridin-2-yl)-5-[4-(trifluoromethyl)piperidin-1-yl]-1,6,8-triazatricyclo[7.2.1.0 {2,7}]dodeca-2,4,6-triene-8-carboxamide]: the “TRP Activity (EC1.5)” value is “A (A (EC1.5<1 μM))” and the Emax is more than 150%.

With `O=C(Nc1ccccn1)N1c2nc(N3CCC[C@@H]3C(F)(F)F)ccc2N2CC[C@H]1C2` [(9S)-N-(pyridin-2-yl)-5-[(2R)-2-(trifluoromethyl)pyrrolidin-1-yl]-1,6,8-triazatricyclo[7.2.1.0 {2,7}]dodeca-2(7),3,5-triene-8-carboxamide], the “TRP Activity (EC1.5)” value is recorded as “A (A (EC1.5<1 μM))” and the Emax was more than 150%.

Take `O=C(Nc1ccccn1)N1c2nc(N3CCC[C@@H]3C(F)(F)F)ccc2N2CCC[C@H]1C2` [(9S)-N-(pyridin-2-yl)-5-[(2R)-2-(trifluoromethyl)pyrrolidin-1-yl]-1,6,8-triazatricyclo[7.3.1.0 {2,7}]trideca-2(7),3,5-triene-8-carboxamide]: the “TRP Activity (EC1.5)” value is “A (A (EC1.5<1 μM))” and the Emax was more than 150%.

Take `O=C(Nc1ccccn1)N1c2nc(N3CCC[C@H]3C(F)(F)F)ccc2N2CC[C@H]1C2` [(9S)-N-(pyridin-2-yl)-5-[(2S)-2-(trifluoromethyl)pyrrolidin-1-yl]-1,6,8-triazatricyclo[7.2.1.0 {2,7}]dodeca-2(7),3,5-triene-8-carboxamide]: the “TRP Activity (EC1.5)” value is on record as “B (B (EC1.5 1-25 μM))” and the Emax is more than 150%.

`O=C(Nc1ccccn1)N1c2nc(N3CCC[C@H]3C(F)(F)F)ccc2N2CCC[C@H]1C2` [(9S)-N-(pyridin-2-yl)-5-[(2S)-2-(trifluoromethyl)pyrrolidin-1-yl]-1,6,8-triazatricyclo[7.3.1.0 {2,7}]trideca-2(7),3,5-triene-8-carboxamide]: the “TRP Activity (EC1.5)” value is “B (B (EC1.5 1-25 μM))” and the Emax was more than 150%.

With `O=C(Nc1ccccn1)N1c2nc(N3CCC[C@@H](C(F)(F)F)C3)ccc2N2CC[C@H]1C2` [(9S)-N-(pyridin-2-yl)-5-[(3R)-3-(trifluoromethyl)piperidin-1-yl]-1,6,8-triazatricyclo[7.2.1.0 {2,7}]dodeca-2,4,6-triene-8-carboxamide], the “TRP Activity (EC1.5)” value was “B (B (EC1.5 1-25 μM))” and the Emax was more than 150%.

In the case of `O=C(Nc1ccccn1)N1c2nc(N3CC[C@@H](C(F)(F)F)C3)ccc2N2CC[C@H]1C2` [(9S)-N-(pyridin-2-yl)-5-[(3R)-3-(trifluoromethyl)pyrrolidin-1-yl]-1,6,8-triazatricyclo[7.2.1.0^2,7]dodeca-2,4,6-triene-8-carboxamide], the “TRP Activity (EC1.5)” value was “A (A (EC1.5<1 μM))” and the Emax was more than 150%.

On to `O=C(Nc1ccccn1)N1c2nc(N3CCC[C@H](C(F)(F)F)C3)ccc2N2CC[C@H]1C2` [(9S)-N-(pyridin-2-yl)-5-[(3S)-3-(trifluoromethyl)piperidin-1-yl]-1,6,8-triazatricyclo[7.2.1.0 {2,7}]dodeca-2,4,6-triene-8-carboxamide], for which the “TRP Activity (EC1.5)” value is listed as “B (B (EC1.5 1-25 μM))” and the Emax is more than 150%.

For `O=C(Nc1ccccn1)N1c2nc(N3CCC(C(F)(F)F)C3)ccc2N2CC[C@H]1C2` (stereo partly drawn) [(9S)-N-(pyridin-2-yl)-5-[(3S)-3-(trifluoromethyl)pyrrolidin-1-yl]-1,6,8-triazatricyclo[7.2.1.0^{2,7}]dodeca-2(7),3,5-triene-8-carboxamide], the “TRP Activity (EC1.5)” value is “B (B (EC1.5 1-25 μM))” and the Emax was more than 150%.
